Values of other authors in US20020006953A1, “MODIFICATION OF CHOLESTEROL CONCENTRATIONS WITH CITUS PHYTOCHEMICALS” (priority 1999, published 2002).

Columns and labels:
[1] = 10% hesperidin diet

| SMILES | activity of lipase (lipase) | plasma concentration of triacylglycerols [1] | net secretion of apo B (HepG2 cells) |
| --- | --- | --- | --- |
| COc1ccc([C@@H]2CC(=O)c3c(O)cc(O[C@@H]4O[C@H](CO[C@@H]5O[C@@H](C)[C@H](O)[C@@H](O)[C@H]5O)[C@@H](O)[C@H](O)[C@H]4O)cc3O2)cc1O [hesperidin] | inhibit | significantly reduced |  |
| COc1ccc([C@@H]2CC(=O)c3c(O)cc(O)cc3O2)cc1O [hesperetin] |  |  | reduced |
| O=C1C[C@@H](c2ccc(O)cc2)Oc2cc(O)cc(O)c21 [naringinin] |  |  | reduced |
